From patent US8642590B2, “Alkylcyclohexylethers of dihydrotetraazabenzoazulenes” (Hoffmann-La Roche Inc., priority 2008, dated 2014)
pKi: −log10 of the molar value. Where a name gives a salt, the structure may show the parent alone. Read-outs that look alike come from different tables or passages of the source.

Target: T1, human V1a receptor (Homo sapiens, UniProt P37288)
T1 construct: expressed in transfected cells; host or cells: HEK293 cells, transiently transfected; cell membranes prepared
Experiment: human V1a receptor binding study (3H-Vasopressin, SPA beads, HEK293 membranes)
Settings: for Ki: membranes of HEK293 cells transiently transfected with human V1a receptor, 3H-Vasopressin, Ki calculated using the Cheng-Prussoff equation, read-out: pKi (hV1a) (converted)
Experimental: The human V1a receptor was cloned by RT-PCR from total human liver RNA. The coding sequence was subcloned in an expression vector after sequencing to confirm the identity of the amplified sequence. […] Cell membranes were prepared from HEK293 cells transiently transfected with the expression vector and grown in 20 liter fermenters with the following protocol.
50 g of cells are resuspended in 30 ml freshly prepared ice cold Lysis buffer (50 mM HEPES, 1 mM EDTA, 10 mM magnesium dichloride adjusted to pH=7.4+complete cocktail of protease inhibitor (Roche Diagnostics)). Homogenized with Polytron for 1 min and sonicated on ice for 2×2 minutes at 80% intensity (Vibracell sonicator). The preparation is centrifuged 20 min at 500 g at 4° C., the pellet is discarded and the supernatant centrifuged 1 hour at 43,000 g at 4° C. (19,000 rpm). The pellet is resuspended in 12.5 ml Lysis buffer+12.5 ml Sucrose 20% and homogenized using a Polytron for 1-2 min. The protein concentration is determined by the Bradford method and aliquots are stored at −80° C. until use. For binding studies 60 mg Yttrium silicate SPA beads (Amersham) are mixed with an aliquot of membrane in binding buffer (50 mM Tris, 120 mM sodium chloride, 5 mM potassium chloride, 2 mM Calcium dichloride, 10 mM magnesium dichloride) for 15 minutes with mixing. 50 μl of bead/membrane mixture is then added to each well of a 96 well plate, followed by 50 μl of 4 nM 3H-Vasopressin (American Radiolabeled Chemicals). For total binding measurement 100 μl of binding buffer are added to the respective wells, for non-specific binding 100 μl of 8.4 mM cold vasopressin and for compound testing 100 μl of a serial dilution of each compound in 2% dimethyl sulfoxide. The plate is incubated 1 h at room temperature, centrifuged 1 min at 1000 g and counted on a Packard Top-Count. Non-specific binding counts are subtracted from each well and data is normalized to the maximum specific binding set at 100%. To calculate an IC 50 the curve is fitted using a non-linear regression model (XLfit) and the Ki is calculated using the Cheng-Prussoff equation.

T1 sequence (P37288 whole entry): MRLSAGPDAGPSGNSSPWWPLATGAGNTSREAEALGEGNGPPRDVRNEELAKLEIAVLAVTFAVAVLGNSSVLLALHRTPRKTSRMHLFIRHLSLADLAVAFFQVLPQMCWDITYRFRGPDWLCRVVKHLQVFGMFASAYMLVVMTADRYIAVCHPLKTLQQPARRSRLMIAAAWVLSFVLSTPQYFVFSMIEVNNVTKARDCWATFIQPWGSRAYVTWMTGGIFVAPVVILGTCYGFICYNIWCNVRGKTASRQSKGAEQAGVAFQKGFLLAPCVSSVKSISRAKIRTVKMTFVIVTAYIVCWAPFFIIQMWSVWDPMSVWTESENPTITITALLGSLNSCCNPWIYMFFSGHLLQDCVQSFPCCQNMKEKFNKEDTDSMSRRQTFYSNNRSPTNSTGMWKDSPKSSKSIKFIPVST

| Compound | Ki | pKi |
| --- | --- | --- |
| CC(C)(C)OC(=O)N1Cc2cc(Cl)ccc2-n2c(nnc2[C@H]2CC[C@@H](OC3CCOCC3)CC2)C1 [Example 60, cis-8-Chloro-1-[4-(tetrahydro-pyran-4-yloxy)-cyclohexyl]-4H,6H-2,3,5,10b-tetraaza-benzoazulene-5-carboxylic acid tert-butyl ester] | 7.08 nM | – |
| CC(CO)O[C@H]1CC[C@H](c2nnc3n2-c2ccc(Cl)cc2CNC3)CC1 (mixture of isomers) [Example 51, (RS)-trans-2-[4-(8-Chloro-5,6-dihydro-4H-2,3,5,10b-tetraaza-benzo[e]azulen-1-yl)-cyclohexyloxy]-propan-1-ol hydrochloride] | 186 nM | – |
| COCC(C)O[C@H]1CC[C@H](c2nnc3n2-c2ccc(Cl)cc2CNC3)CC1 (mixture of isomers) [Example 46, (RS)-trans-8-Chloro-1-[4-(2-methoxy-1-methyl-ethoxy)-cyclohexyl]-5,6-dihydro-4H-2,3,5,10b-tetraaza-benzo[e]azulene hydrochloride] | 117 nM | – |
| CCO[C@H]1CC[C@H](c2nnc3n2-c2ccc(Cl)cc2CN(C(=O)OC(C)(C)C)C3)CC1 [Example 2, trans-8-Chloro-1-(4-ethoxy-cyclohexyl)-4H,6H-2,3,5,10b-tetraaza-benzo[e]azulene-5-carboxylic acid tert-butyl ester] | 2.4 nM | – |
| CN1Cc2cc(Cl)ccc2-n2c(nnc2[C@H]2CC[C@H](OC3CCOCC3)CC2)C1 [Example 62, trans-8-Chloro-5-methyl-1-[4-(tetrahydro-pyran-4-yloxy)-cyclohexyl]-5,6-dihydro-4H-2,3,5,10b-tetraaza-benzoazulene] | 20 nM | – |
| CN1Cc2cc(Cl)ccc2-n2c(nnc2[C@H]2CC[C@H](OC(F)(F)F)CC2)C1 [Example 67, trans-8-Chloro-5-methyl-1-(4-trifluoromethoxy-cyclohexyl)-5,6-dihydro-4H-2,3,5,10b-tetraaza-benzo[e]azulene] | 26.3 nM | – |
| CC(C)O[C@H]1CC[C@H](c2nnc3n2-c2ccc(Cl)cc2CN(C)C3)CC1 [Example 10, trans-8-Chloro-1-(4-isopropoxy-cyclohexyl)-5-methyl-5,6-dihydro-4H-2,3,5,10b-tetraaza-benzo[e]azulene] | 2.82 nM | – |
| CCO[C@H]1CC[C@H](c2nnc3n2-c2ccc(Cl)cc2CN(C)C3)CC1 [Example 4, trans-8-Chloro-1-(4-ethoxy-cyclohexyl)-5-methyl-5,6-dihydro-4H-2,3,5,10b-tetraaza-benzo[e]azulene] | 6.76 nM | – |
| CC(C)(C)OC(=O)N1Cc2cc(Cl)ccc2-n2c(nnc2[C@H]2CC[C@H](OC(C)(C)C)CC2)C1 [Example 68, trans-1-(4-tert-Butoxy-cyclohexyl)-8-chloro-4H,6H-2,3,5,10b-tetraaza-benzo[e]azulene-5-carboxylic acid tert-butyl ester] | 3.8 nM | – |
| CCO[C@H]1CC[C@@H](c2nnc3n2-c2ccc(Cl)cc2CN(C(=O)OC(C)(C)C)C3)CC1 [Example 5, cis-8-Chloro-1-(4-ethoxy-cyclohexyl)-4H,6H-2,3,5,10b-tetraaza-benzo[e]azulene-5-carboxylic acid tert-butyl ester] | 14.1 nM | – |
| CCO[C@H]1CC[C@H](c2nnc3n2-c2ccc(Cl)cc2CNC3)CC1 [Example 3, trans-8-Chloro-1-(4-ethoxy-cyclohexyl)-5,6-dihydro-4H-2,3,5,10b-tetraaza-benzo[e]azulene hydrochloride] | 63.1 nM | – |
| CN1Cc2cc(Cl)ccc2-n2c(nnc2[C@H]2CC[C@H](OC3CCCCC3)CC2)C1 [Example 41, trans-8-Chloro-1-(4-cyclohexyloxy-cyclohexyl)-5-methyl-5,6-dihydro-4H-2,3,5,10b-tetraaza-benzoazulene] | 2.88 nM | – |
| CC(CC(F)(F)F)O[C@H]1CC[C@H](c2nnc3n2-c2ccc(Cl)cc2CN(C)C3)CC1 (mixture of isomers) [Example 56, (RS)-trans-8-Chloro-5-methyl-1-[4-(3,3,3-trifluoro-1-methyl-propoxy)-cyclohexyl]-5,6-dihydro-4H-2,3,5,10b-tetraaza-benzo[e]azulene] | 6.76 nM | – |
| CC(C)(C)OC(=O)N1Cc2cc(Cl)ccc2-n2c(nnc2[C@H]2CC[C@H](OC3COC3)CC2)C1 [Example 57, trans-8-Chloro-1-[4-(oxetan-3-yloxy)-cyclohexyl]-4H,6H-2,3,5,10b-tetraaza-benzo[e]azulene-5-carboxylic acid tert-butyl ester] | – | 8.21 |
| Clc1ccc2c(c1)CNCc1nnc([C@H]3CC[C@@H](OC4CCC4)CC3)n1-2 [Example 34, cis-8-Chloro-1-(4-cyclobutoxy-cyclohexyl)-5,6-dihydro-4H-2,3,5,10b-tetraaza-benzo[e]azulene hydrochloride] | 145 nM | – |
| COC[C@H](C)O[C@H]1CC[C@H](c2nnc3n2-c2ccc(Cl)cc2CN(C)C3)CC1 (stereo in doubt) [Example 48, (+)-trans-8-Chloro-1-[4-(2-methoxy-1-methyl-ethoxy)-cyclohexyl]-5-methyl-5,6-dihydro-4H-2,3,5,10b-tetraaza-benzo[e]azulene] | 47.9 nM | – |
| CCO[C@H]1CC[C@@H](c2nnc3n2-c2ccc(Cl)cc2CN(C)C3)CC1 [Example 7, cis-8-Chloro-1-(4-ethoxy-cyclohexyl)-5-methyl-5,6-dihydro-4H-2,3,5,10b-tetraaza-benzo[e]azulene] | 55 nM | – |
| CCO[C@H]1CC[C@@H](c2nnc3n2-c2ccc(Cl)cc2CNC3)CC1 [Example 6, cis-8-Chloro-1-(4-ethoxy-cyclohexyl)-5,6-dihydro-4H-2,3,5,10b-tetraaza-benzo[e]azulene hydrochloride] | 891 nM | – |
| CN1Cc2cc(Cl)ccc2-n2c(nnc2[C@H]2CC[C@@H](OC3CCOCC3)CC2)C1 [Example 64, cis-8-Chloro-5-methyl-1-[4-(tetrahydro-pyran-4-yloxy)-cyclohexyl]-5,6-dihydro-4H-2,3,5,10b-tetraaza-benzoazulene] | 17 nM | – |
| Clc1ccc2c(c1)CNCc1nnc([C@H]3CC[C@@H](OC4CCOCC4)CC3)n1-2 [Example 63, cis-8-Chloro-1-[4-(tetrahydro-pyran-4-yloxy)-cyclohexyl]-5,6-dihydro-4H-2,3,5,10b-tetraaza-benzoazulene hydrochloride] | 288 nM | – |
| Clc1ccc2c(c1)CNCc1nnc([C@H]3CC[C@H](OC4CCOCC4)CC3)n1-2 [Example 61, trans-8-Chloro-1-[4-(tetrahydro-pyran-4-yloxy)-cyclohexyl]-5,6-dihydro-4H-2,3,5,10b-tetraaza-benzoazulene hydrochloride] | 447 nM | – |
| CN1Cc2cc(Cl)ccc2-n2c(nnc2[C@H]2CC[C@@H](OC3CCC3)CC2)C1 [Example 35, cis-8-Chloro-1-(4-cyclobutoxy-cyclohexyl)-5-methyl-5,6-dihydro-4H-2,3,5,10b-tetraaza-benzo[e]azulene] | 7.94 nM | – |
| CC(C)(C)OC(=O)N1Cc2cc(Cl)ccc2-n2c(nnc2[C@H]2CC[C@H](OC3CCCCC3)CC2)C1 [Example 39, trans-8-Chloro-1-(4-cyclohexyloxy-cyclohexyl)-4H,6H-2,3,5,10b-tetraaza-benzoazulene-5-carboxylic acid tert-butyl ester] | – | 8.19 |
| FC(F)(F)O[C@H]1CC[C@H](c2nnc3n2-c2ccc(Cl)cc2CNC3)CC1 [Example 66, trans-8-Chloro-1-(4-trifluoromethoxy-cyclohexyl)-5,6-dihydro-4H-2,3,5,10b-tetraaza-benzo[e]azulene hydrochloride] | 195 nM | – |
| CC(C)(C)OC(=O)N1Cc2cc(Cl)ccc2-n2c(nnc2[C@H]2CC[C@H](OC3CCOCC3)CC2)C1 [Example 59, trans-8-Chloro-1-[4-(tetrahydro-pyran-4-yloxy)-cyclohexyl]-4H,6H-2,3,5,10b-tetraaza-benzoazulene-5-carboxylic acid tert-butyl ester] | 5.62 nM | – |
| CC(C)O[C@H]1CC[C@@H](c2nnc3n2-c2ccc(Cl)cc2CN(C)C3)CC1 [Example 24, cis-8-Chloro-1-(4-isopropoxy-cyclohexyl)-5-methyl-5,6-dihydro-4H-2,3,5,10b-tetraaza-benzo[e]azulene] | 26.9 nM | – |
| CC(C)O[C@H]1CC[C@@H](c2nnc3n2-c2ccc(Cl)cc2CN(C(=O)OC(C)(C)C)C3)CC1 [Example 22, cis-8-Chloro-1-(4-isopropoxy-cyclohexyl)-4H,6H-2,3,5,10b-tetraaza-benzo[e]azulene-5-carboxylic acid tert-butyl ester] | 8.91 nM | – |
| CC(C)(C)OC(=O)N1Cc2cc(Cl)ccc2-n2c(nnc2[C@H]2CC[C@H](OC(F)(F)F)CC2)C1 [Example 65, trans-8-Chloro-1-(4-trifluoromethoxy-cyclohexyl)-4H,6H-2,3,5,10b-tetraaza-benzo[e]azulene-5-carboxylic acid tert-butyl ester] | 14.5 nM | – |
